Measurements from PubChem BioAssay (NCI).
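Exposure lasted 48 hours, with cells grown in 96-well plates and compounds tested at five concentrations. TGI denotes the concentration required for complete inhibition of growth.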

Legend:
Assay in all cases: NCI anticancer screen, dose series, 48 h
[1] = tested on: HS 578T breast
[2] = tested on: SN12C renal
[3] = tested on: SF-295 CNS
[4] = tested on: OVCAR-8 ovarian
[5] = tested on: NCI/ADR-RES ovarian
[6] = tested on: DU-145 prostate
[7] = tested on: M14 melanoma
[8] = tested on: NCI-H460 lung
[9] = tested on: IGROV1 ovarian
[10] = tested on: HOP-92 NSCLC
[11] = tested on: TK-10 renal
[12] = tested on: SK-MEL-5 melanoma
[13] = tested on: CAKI-1 renal
[14] = tested on: T-47D breast
[15] = tested on: K-562 leukemia
[16] = tested on: SR leukemia
[17] = tested on: CCRF-CEM leukemia
[18] = tested on: MDA-N
[19] = tested on: MDA-MB-435
[20] = tested on: HCC-2998 colon
[21] = tested on: SK-MEL-28 melanoma
[22] = tested on: PC-3 prostate
[23] = tested on: SNB-19 CNS
[24] = tested on: RPMI-8226 leukemia
[25] = tested on: NCI-H226 lung
[26] = tested on: A549 NSCLC
[27] = tested on: HT29 colon
[28] = tested on: OVCAR-4 ovarian
[29] = tested on: HL-60(TB) leukemia
[30] = tested on: HOP-62 NSCLC
[31] = tested on: UACC-257 melanoma
[32] = tested on: ACHN renal
[33] = tested on: SNB-75 CNS
[34] = tested on: UO-31 renal
[35] = tested on: SK-OV-3 ovarian
[36] = tested on: NCI-H23 lung
[37] = tested on: HCT-15 colon
[38] = tested on: U251 CNS
[39] = tested on: SK-MEL-2 melanoma
[40] = tested on: OVCAR-3 ovarian
[41] = tested on: COLO 205 colon
[42] = tested on: LOX IMVI melanoma
[43] = tested on: MOLT-4 leukemia
[44] = tested on: OVCAR-5 ovarian
[45] = tested on: MDA-MB-231 breast
[46] = tested on: SW-620 colon
[47] = tested on: HCT-116 colon
[48] = tested on: NCI-H522 lung
[49] = tested on: MCF7 breast
[50] = tested on: SF-539 CNS
[51] = tested on: MALME-3M melanoma
[52] = tested on: BT-549 breast
[53] = tested on: EKVX NSCLC
[54] = tested on: KM12 colon
[55] = tested on: 786-0 renal
[56] = tested on: SF-268 CNS

## CSCCC(NOC(=O)Cc1ccccc1)P(=O)(O)c1ccccc1 (stereo unspecified)
[1]
  TGI: > 100 µM
[2]
  TGI: > 100 µM
[3]
  TGI: > 100 µM
[4]
  TGI: > 100 µM
[5]
  TGI: > 100 µM
[6]
  TGI: > 100 µM
[7]
  TGI: > 100 µM
[8]
  TGI: > 100 µM
[9]
  TGI: > 100 µM
[10]
  TGI: > 100 µM
[11]
  TGI: > 100 µM
[12]
  TGI: > 100 µM
[13]
  TGI: > 100 µM
[14]
  TGI: > 100 µM
[15]
  TGI: > 100 µM
[16]
  TGI: > 100 µM
[17]
  TGI: > 100 µM
[18]
  TGI: > 100 µM
[19]
  TGI: > 100 µM
[20]
  TGI: > 100 µM
[21]
  TGI: > 100 µM
[22]
  TGI: > 100 µM
[23]
  TGI: > 100 µM
[24]
  TGI: > 100 µM
[25]
  TGI: > 100 µM
[26]
  TGI: > 100 µM
[27]
  TGI: > 100 µM
[28]
  TGI: > 100 µM
[29]
  TGI: > 100 µM
[30]
  TGI: > 100 µM
[31]
  TGI: > 100 µM
[32]
  TGI: > 100 µM
[33]
  TGI: > 100 µM
[34]
  TGI: > 100 µM
[35]
  TGI: > 100 µM
[36]
  TGI: > 100 µM
[37]
  TGI: > 100 µM
[38]
  TGI: > 100 µM
[39]
  TGI: > 100 µM
[40]
  TGI: > 100 µM
[41]
  TGI: > 100 µM
[42]
  TGI: > 100 µM
[43]
  TGI: > 100 µM
[44]
  TGI: > 100 µM
[45]
  TGI: > 100 µM
[46]
  TGI: > 100 µM
[47]
  TGI: > 100 µM
[48]
  TGI: > 100 µM
[49]
  TGI: > 100 µM

## CC(=O)O[C@H]1C(=O)[C@@]2(C)C(C(OC(=O)c3ccccc3)[C@]3(O)CC(OC(=O)C(O)C(NC(=O)c4cccc(Cl)c4)c4ccccc4)C(C)=C1C3(C)C)[C@]1(OC(C)=O)CO[C@@H]1C[C@@H]2O (stereo partly specified)
[50]
  TGI: 2.19 µM
[51]
  TGI: > 10 µM
[2]
  TGI: > 10 µM
[52]
  TGI: > 10 µM
[3]
  TGI: > 10 µM
[4]
  TGI: > 10 µM
[5]
  TGI: > 10 µM
[6]
  TGI: 5.58 µM
[7]
  TGI: > 10 µM
[8]
  TGI: > 10 µM
[9]
  TGI: > 10 µM
[10]
  TGI: > 10 µM
[11]
  TGI: > 10 µM
[12]
  TGI: 6.22 µM
[13]
  TGI: > 10 µM
[53]
  TGI: > 10 µM
[15]
  TGI: > 10 µM
[16]
  TGI: 5.15 µM
[17]
  TGI: 5.91 µM
[18]
  TGI: 0.334 µM
[19]
  TGI: 0.417 µM
[20]
  TGI: 4.1 µM
[22]
  TGI: > 10 µM
[23]
  TGI: > 10 µM
[24]
  TGI: > 10 µM
[25]
  TGI: > 10 µM
[54]
  TGI: > 10 µM
[26]
  TGI: > 10 µM
[27]
  TGI: > 10 µM
[28]
  TGI: > 10 µM
[55]
  TGI: > 10 µM
[29]
  TGI: 0.419 µM
[30]
  TGI: > 10 µM
[31]
  TGI: > 10 µM
[32]
  TGI: > 10 µM
[33]
  TGI: 8.9 µM
[35]
  TGI: > 10 µM
[36]
  TGI: > 10 µM
[37]
  TGI: > 10 µM
[38]
  TGI: 8.9 µM
[39]
  TGI: > 10 µM
[40]
  TGI: > 10 µM
[41]
  TGI: 4.58 µM
[42]
  TGI: > 10 µM
[43]
  TGI: > 10 µM
[44]
  TGI: > 10 µM
[45]
  TGI: 8.72 µM
[46]
  TGI: > 10 µM
[47]
  TGI: 5.12 µM
[48]
  TGI: 3.83 µM
[49]
  TGI: > 10 µM
[56]
  TGI: > 10 µM
